Among the data in PubChem BioAssay (NCI) are GI50 and TGI values, retold here.

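Test compounds were applied to cells in 96-well plates for 48 hours at 5 doses. GI50: concentration for 50% inhibition of growth. At the TGI there is no net growth.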

Among the test systems are RPMI-8226 leukemia; SR leukemia; SK-MEL-5 melanoma; LOX IMVI melanoma; MDA-MB-435; UACC-62 melanoma; CAKI-1 renal; U251 CNS; HCC-2998 colon; NCI-H522 lung.
Common to all, as to assay: NCI tumour cell line growth inhibition, 48 h

With `CCSC[C@@H]1C[C@](O)(c2ccccc2)[C@@H](c2ccccc2)O1`, the GI50 is 28.7 µM in the experiment on RPMI-8226 leukemia; less than 0.136 µM in the experiment on SR leukemia; 44.4 µM in the experiment on SK-MEL-5 melanoma; more than 94.2 µM in the experiment with LOX IMVI melanoma; more than 94.6 µM in the experiment with MDA-MB-435; 69.2 µM in the experiment on UACC-62 melanoma. Also, the GI50 in the experiment with CAKI-1 renal was more than 83.8 µM; with U251 CNS it was 99.1 µM; in the experiment on HCC-2998 colon, more than 100 µM; in the experiment on NCI-H522 lung, 58.4 µM. Also, the TGI in the experiment on RPMI-8226 leukemia is more than 100 µM; in the experiment with SR leukemia, 9.3 µM; in the experiment with SK-MEL-5 melanoma, more than 100 µM; with LOX IMVI melanoma, more than 100 µM; with MDA-MB-435 it was more than 100 µM; in the experiment with UACC-62 melanoma, more than 100 µM. Besides, the TGI in the experiment with CAKI-1 renal, in the experiment on U251 CNS, with HCC-2998 colon and in the experiment on NCI-H522 lung was more than 100 µM each time.

For `S=c1ssnc1-c1cc2ccccc2o1`, the GI50 is 2.36 µM with RPMI-8226 leukemia; 3.04 µM in the experiment with SR leukemia; 13.6 µM with SK-MEL-5 melanoma; 4.12 µM with LOX IMVI melanoma; 11.6 µM in the experiment with MDA-MB-435; 15.5 µM in the experiment on UACC-62 melanoma. Also, the GI50 is 10 µM with CAKI-1 renal, 15.1 µM in the experiment on U251 CNS, 16.4 µM with HCC-2998 colon and 20.7 µM in the experiment with NCI-H522 lung. Further, the TGI in the experiment on RPMI-8226 leukemia is 25.7 µM; in the experiment on SR leukemia, 18.3 µM; in the experiment on SK-MEL-5 melanoma, 26.7 µM; with LOX IMVI melanoma, 15.7 µM; in the experiment with MDA-MB-435, 32 µM; with UACC-62 melanoma it was 29.4 µM. The TGI was 26.1 µM with CAKI-1 renal, 28.4 µM in the experiment on U251 CNS, 34.4 µM in the experiment with HCC-2998 colon and 45.9 µM with NCI-H522 lung.

With `O=C(/C=C/c1ccc(O)c(O)c1)N1CCN(c2ccc(Cl)cc2)CC1`, the GI50 in the experiment on RPMI-8226 leukemia is 2.87 µM; in the experiment on SR leukemia it was 3.94 µM; with SK-MEL-5 melanoma, 2.65 µM; in the experiment on LOX IMVI melanoma, 7.35 µM; in the experiment with MDA-MB-435, 5.93 µM; in the experiment on UACC-62 melanoma it was 6.36 µM. In addition, the GI50 is 4.71 µM in the experiment with CAKI-1 renal, 5 µM in the experiment with U251 CNS, 10.5 µM in the experiment on HCC-2998 colon and 1.83 µM with NCI-H522 lung. Besides, the TGI in the experiment with RPMI-8226 leukemia came out at 29.7 µM; with SR leukemia, 34 µM; with SK-MEL-5 melanoma, 10.2 µM; with LOX IMVI melanoma, 21.6 µM; with MDA-MB-435, 62.2 µM; with UACC-62 melanoma it was 23.3 µM. Moreover, the TGI came out at 48 µM with CAKI-1 renal, 23.3 µM in the experiment with U251 CNS, 23.8 µM with HCC-2998 colon and 12.6 µM in the experiment on NCI-H522 lung.

Regarding `COc1ccc(-c2nsc3c2NC(=O)CC3c2ccsc2)cc1` (stereo unspecified), the GI50 in the experiment on RPMI-8226 leukemia was 0.279 µM; in the experiment on SR leukemia, 0.0384 µM; in the experiment with SK-MEL-5 melanoma, 0.0992 µM; in the experiment on LOX IMVI melanoma it was 0.422 µM; in the experiment with MDA-MB-435, 0.0235 µM; in the experiment on UACC-62 melanoma it was 0.295 µM. The GI50 in the experiment on CAKI-1 renal was 0.298 µM; in the experiment with U251 CNS, 0.299 µM; in the experiment with HCC-2998 colon, 0.528 µM; with NCI-H522 lung, 0.139 µM. Besides, the TGI with RPMI-8226 leukemia was 21 µM; in the experiment with SR leukemia, more than 100 µM; with SK-MEL-5 melanoma, 2.76 µM; with LOX IMVI melanoma, more than 100 µM; in the experiment on MDA-MB-435 it was 0.0644 µM; with UACC-62 melanoma it was 65 µM. In addition, the TGI in the experiment on CAKI-1 renal is more than 100 µM; in the experiment with U251 CNS, more than 100 µM; with HCC-2998 colon it was more than 22.7 µM; in the experiment with NCI-H522 lung it was 4.25 µM.

Consider `Cc1ccc(-c2nc(NCCOCCOCCN)nc(N3CCN(c4ccccn4)CC3)n2)cc1`, for which the GI50 in the experiment on RPMI-8226 leukemia is 10.6 µM; in the experiment with SR leukemia it was 5.5 µM; in the experiment with SK-MEL-5 melanoma, 11.8 µM; in the experiment with LOX IMVI melanoma, 8.82 µM; in the experiment on MDA-MB-435 it was 10.5 µM; with UACC-62 melanoma, 5.99 µM. The GI50 with CAKI-1 renal is 16.5 µM; with U251 CNS, 14.2 µM; in the experiment on HCC-2998 colon, 8.01 µM; in the experiment with NCI-H522 lung it was 18.4 µM. The TGI in the experiment on RPMI-8226 leukemia stood at 32.8 µM; in the experiment with SR leukemia, 20.7 µM; with SK-MEL-5 melanoma it was 25.1 µM; in the experiment with LOX IMVI melanoma it was 25.9 µM; in the experiment on MDA-MB-435, 30.2 µM; in the experiment with UACC-62 melanoma, 13.7 µM. Also, the TGI with CAKI-1 renal turned out to be 33.7 µM; with U251 CNS it was 33 µM; in the experiment on HCC-2998 colon, 21.9 µM; in the experiment on NCI-H522 lung it was 37 µM.

As for `Cn1c(=O)c(-c2ccccc2Cl)cc2cnc(NC3CCOCC3)nc21`, the GI50 in the experiment with RPMI-8226 leukemia is more than 15.7 µM; in the experiment on SR leukemia, 8.3 µM; in the experiment on SK-MEL-5 melanoma, 11 µM; in the experiment with LOX IMVI melanoma, 5.49 µM; with MDA-MB-435, 7.22 µM; in the experiment with UACC-62 melanoma it was 6.37 µM. Further, the GI50 in the experiment with CAKI-1 renal is 6.58 µM; in the experiment on U251 CNS, 15.1 µM; in the experiment with HCC-2998 colon it was more than 21.8 µM; in the experiment with NCI-H522 lung, 12.6 µM. Also, the TGI in the experiment with RPMI-8226 leukemia, in the experiment with SR leukemia, with SK-MEL-5 melanoma, with LOX IMVI melanoma, with MDA-MB-435 and in the experiment with UACC-62 melanoma was more than 25 µM in each case. Moreover, the TGI in the experiment with CAKI-1 renal, in the experiment with U251 CNS, in the experiment with HCC-2998 colon and in the experiment on NCI-H522 lung was more than 25 µM throughout.

In the case of `C=CCC(N[C@@H](CO)c1ccccc1)c1ccc2ccccc2n1` (stereo partly specified), the GI50 in the experiment on RPMI-8226 leukemia is 30.2 µM; in the experiment with SR leukemia, 17.2 µM; in the experiment on LOX IMVI melanoma, more than 100 µM; with MDA-MB-435, more than 100 µM; in the experiment on UACC-62 melanoma it was more than 100 µM; in the experiment with CAKI-1 renal it was more than 100 µM. Further, the GI50 in the experiment with U251 CNS is more than 100 µM; with HCC-2998 colon, more than 100 µM; in the experiment on NCI-H522 lung it was 64.6 µM. In addition, the TGI is more than 100 µM with RPMI-8226 leukemia; 65.5 µM in the experiment with SR leukemia; more than 100 µM in the experiment with LOX IMVI melanoma; more than 100 µM in the experiment with MDA-MB-435; more than 100 µM with UACC-62 melanoma; more than 100 µM with CAKI-1 renal. Moreover, the TGI in the experiment on U251 CNS, in the experiment with HCC-2998 colon and in the experiment on NCI-H522 lung was more than 100 µM each time.

On to `CC(C)=C[C@@H]1C[C@H](C)[C@H]2CC[C@H](C)c3c(O)c(OC4OC(C)C(O)C(O)C4O)c(C)c1c32` (stereo partly specified), for which the GI50 is 12.5 µM with RPMI-8226 leukemia; 2.59 µM with SR leukemia; 12 µM in the experiment on SK-MEL-5 melanoma; 11.8 µM with LOX IMVI melanoma; 13.6 µM in the experiment on MDA-MB-435; 14.5 µM with CAKI-1 renal. In addition, the GI50 was 14.7 µM with U251 CNS, 0.734 µM in the experiment on HCC-2998 colon and 16.1 µM in the experiment on NCI-H522 lung. The TGI in the experiment with RPMI-8226 leukemia was determined as 27.6 µM; in the experiment on SR leukemia it was 10.4 µM; in the experiment with SK-MEL-5 melanoma it was 24.7 µM; in the experiment with LOX IMVI melanoma, 24.4 µM; in the experiment on MDA-MB-435, 27.2 µM; in the experiment with CAKI-1 renal it was 28.7 µM. Besides, the TGI in the experiment on U251 CNS came out at 27.8 µM; in the experiment with HCC-2998 colon, 3.97 µM; in the experiment with NCI-H522 lung it was 29.8 µM.
